Measurements reported in ChEMBL document CHEMBL1201862, “PubChem BioAssay data set” (2004).
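In this assay, cells in 96-well plates receive the compound at five concentrations for 48 hours. Endpoints are linearly interpolated between the surrounding concentrations. At the GI50, growth is halved.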 Activity calls are given as the source filed them. Rule as the data show it: active = GI50 up to about 1.1 µM and inactive = higher.

Columns and labels:
Experiment in all cases: NCI anticancer screen, dose series, 48 h
[1] = tested on: U-251
[2] = tested on: NCI/ADR-RES
[3] = tested on: HOP-62
[4] = tested on: NCI-H522
[5] = tested on: K562
[6] = tested on: PC-3
[7] = tested on: SNB-75
[8] = tested on: SW-620
[9] = tested on: MDA-N
[10] = tested on: ACHN
[11] = tested on: T47D
[12] = tested on: BT-549
[13] = tested on: NCI-H460
[14] = tested on: COLO 205
[15] = tested on: A549
[16] = tested on: SF-295
[17] = tested on: SF-268
[18] = tested on: EKVX
[19] = tested on: Hs-578T
[20] = tested on: OVCAR-3
[21] = tested on: RPMI-8226
[22] = tested on: OVCAR-8
[23] = tested on: HCC 2998
[24] = tested on: MCF7
[25] = tested on: 786-0
[26] = tested on: CAKI-1
[27] = tested on: TK-10
[28] = tested on: MDA-MB-231
[29] = tested on: UACC-62
[30] = tested on: HL-60
[31] = tested on: HT-29
[32] = tested on: SF-539
[33] = tested on: MOLT-4
[34] = tested on: SNB-19
[35] = tested on: RXF 393
[36] = tested on: CCRF-CEM
[37] = tested on: NCI-H226
[38] = tested on: SK-MEL-5
[39] = tested on: DU-145
[40] = tested on: LOX IMVI
[41] = tested on: SN12C
[42] = tested on: IGROV-1
[43] = tested on: SK-MEL-28
[44] = tested on: SR
[45] = tested on: UO-31
[46] = tested on: SK-MEL-2
[47] = tested on: HOP-92
[48] = tested on: HCT-116
[49] = tested on: KM12
[50] = tested on: SK-OV-3
[51] = tested on: OVCAR-4
[52] = tested on: Malme-3M
[53] = tested on: M14
[54] = tested on: HCT-15
[55] = tested on: UACC-257
[56] = tested on: MDA-MB-435
[57] = tested on: OVCAR-5
[58] = tested on: NCI-H23
[59] = tested on: A498

Structure (SMILES): c1ccc2c(c1)cc1n2CCc2c-1[nH]c1ccccc21
- GI50 [1]: > 10 µM (inactive)
- GI50 [2]: > 10 µM (inactive)
- GI50 [3]: > 10 µM (inactive)
- GI50 [4]: > 10 µM (inactive)
- GI50 [5]: > 10 µM (inactive)
- GI50 [6]: > 10 µM (inactive)
- GI50 [7]: > 10 µM (inactive)
- GI50 [8]: > 10 µM (inactive)
- GI50 [9]: > 10 µM (inactive)
- GI50 [10]: > 10 µM (inactive)
- GI50 [11]: 3.01 µM (inactive)
- GI50 [12]: > 10 µM (inactive)
- GI50 [13]: > 10 µM (inactive)
- GI50 [14]: > 10 µM (inactive)
- GI50 [15]: > 10 µM (inactive)
- GI50 [16]: > 10 µM (inactive)
- GI50 [17]: > 10 µM (inactive)
- GI50 [18]: > 10 µM (inactive)
- GI50 [19]: > 10 µM (inactive)
- GI50 [20]: > 10 µM (inactive)
- GI50 [21]: > 10 µM (inactive)
- GI50 [22]: > 10 µM (inactive)
- GI50 [23]: > 10 µM (inactive)
- GI50 [24]: > 10 µM (inactive)
- GI50 [25]: > 10 µM (inactive)
- GI50 [26]: > 10 µM (inactive)
- GI50 [27]: > 10 µM (inactive)
- GI50 [28]: > 10 µM (inactive)
- GI50 [29]: > 10 µM (inactive)
- GI50 [30]: > 10 µM (inactive)
- GI50 [31]: > 10 µM (inactive)
- GI50 [32]: > 10 µM (inactive)
- GI50 [33]: > 10 µM (inactive)
- GI50 [34]: > 10 µM (inactive)
- GI50 [35]: > 10 µM (inactive)
- GI50 [36]: > 10 µM (inactive)
- GI50 [37]: > 10 µM (inactive)
- GI50 [38]: > 10 µM (inactive)
- GI50 [39]: > 10 µM (inactive)
- GI50 [40]: > 10 µM (inactive)
- GI50 [41]: > 10 µM (inactive)
- GI50 [42]: > 10 µM (inactive)
- GI50 [43]: > 10 µM (inactive)
- GI50 [44]: > 10 µM (inactive)
- GI50 [45]: > 10 µM (inactive)
- GI50 [46]: > 10 µM (inactive)
- GI50 [47]: > 10 µM (inactive)
- GI50 [48]: > 10 µM (inactive)
- GI50 [49]: > 10 µM (inactive)
- GI50 [50]: > 10 µM (inactive)
- GI50 [51]: > 10 µM (inactive)
- GI50 [52]: > 10 µM (inactive)
- GI50 [53]: > 10 µM (inactive)
- GI50 [54]: 5.12 µM
- GI50 [55]: > 10 µM (inactive)
- GI50 [56]: > 10 µM (inactive)
- GI50 [57]: > 10 µM (inactive)
- GI50 [58]: > 10 µM (inactive)

Structure (SMILES): Cc1ccc(O)c(C(=O)/C=C/c2ccccc2)c1
- GI50 [1]: > 100 µM (inactive)
- GI50 [2]: 53.5 µM (inactive)
- GI50 [3]: > 100 µM (inactive)
- GI50 [4]: 5.81 µM (inactive)
- GI50 [5]: > 100 µM (inactive)
- GI50 [6]: > 100 µM (inactive)
- GI50 [7]: 49 µM (inactive)
- GI50 [8]: > 100 µM (inactive)
- GI50 [9]: > 100 µM (inactive)
- GI50 [10]: > 100 µM (inactive)
- GI50 [11]: > 100 µM (inactive)
- GI50 [12]: > 100 µM (inactive)
- GI50 [13]: > 100 µM (inactive)
- GI50 [14]: > 100 µM (inactive)
- GI50 [15]: > 100 µM (inactive)
- GI50 [16]: > 100 µM (inactive)
- GI50 [17]: > 100 µM (inactive)
- GI50 [18]: > 100 µM (inactive)
- GI50 [19]: 78 µM (inactive)
- GI50 [20]: > 100 µM (inactive)
- GI50 [21]: > 100 µM (inactive)
- GI50 [22]: > 100 µM (inactive)
- GI50 [23]: > 100 µM (inactive)
- GI50 [24]: > 100 µM (inactive)
- GI50 [25]: > 100 µM (inactive)
- GI50 [26]: > 100 µM (inactive)
- GI50 [27]: > 100 µM (inactive)
- GI50 [28]: > 100 µM (inactive)
- GI50 [29]: > 100 µM (inactive)
- GI50 [30]: 23.1 µM (inactive)
- GI50 [31]: > 100 µM (inactive)
- GI50 [32]: > 100 µM (inactive)
- GI50 [33]: 9.93 µM (inactive)
- GI50 [34]: > 100 µM (inactive)
- GI50 [35]: > 100 µM (inactive)
- GI50 [36]: > 100 µM (inactive)
- GI50 [37]: > 100 µM (inactive)
- GI50 [38]: > 100 µM (inactive)
- GI50 [39]: > 100 µM (inactive)
- GI50 [40]: > 100 µM (inactive)
- GI50 [41]: > 100 µM (inactive)
- GI50 [42]: > 100 µM (inactive)
- GI50 [43]: > 100 µM (inactive)
- GI50 [44]: > 100 µM (inactive)
- GI50 [45]: > 100 µM (inactive)
- GI50 [46]: > 100 µM (inactive)
- GI50 [47]: > 100 µM (inactive)
- GI50 [48]: > 100 µM (inactive)
- GI50 [49]: 1.37 µM (inactive)
- GI50 [50]: > 100 µM (inactive)
- GI50 [51]: 78.9 µM (inactive)
- GI50 [53]: > 100 µM (inactive)
- GI50 [54]: > 100 µM
- GI50 [55]: > 100 µM (inactive)
- GI50 [56]: > 100 µM (inactive)
- GI50 [57]: > 100 µM (inactive)
- GI50 [58]: > 100 µM (inactive)

Structure (SMILES): c1ccc(C2C3=C(CCCC3)Nc3nnnn32)cc1 (stereo not given)
- GI50 [1]: > 100 µM (inactive)
- GI50 [2]: 98.9 µM (inactive)
- GI50 [3]: > 100 µM (inactive)
- GI50 [5]: 32.4 µM (inactive)
- GI50 [6]: 68.1 µM (inactive)
- GI50 [8]: > 100 µM (inactive)
- GI50 [9]: 98.4 µM (inactive)
- GI50 [10]: 82.4 µM (inactive)
- GI50 [11]: 25.4 µM (inactive)
- GI50 [12]: 34.8 µM (inactive)
- GI50 [13]: 12.9 µM (inactive)
- GI50 [14]: > 100 µM (inactive)
- GI50 [15]: 64 µM (inactive)
- GI50 [16]: 57.4 µM (inactive)
- GI50 [17]: 12.5 µM (inactive)
- GI50 [19]: 64 µM (inactive)
- GI50 [20]: 37.8 µM (inactive)
- GI50 [22]: > 100 µM (inactive)
- GI50 [24]: 13.8 µM (inactive)
- GI50 [25]: > 100 µM (inactive)
- GI50 [26]: > 100 µM (inactive)
- GI50 [28]: > 100 µM (inactive)
- GI50 [29]: 56.2 µM (inactive)
- GI50 [30]: 33.1 µM (inactive)
- GI50 [32]: > 100 µM (inactive)
- GI50 [33]: 53 µM (inactive)
- GI50 [59]: 19.2 µM (inactive)
- GI50 [34]: > 100 µM (inactive)
- GI50 [35]: 0.226 µM (active)
- GI50 [38]: 48.9 µM (inactive)
- GI50 [39]: > 100 µM (inactive)
- GI50 [40]: > 100 µM (inactive)
- GI50 [41]: > 100 µM (inactive)
- GI50 [42]: > 100 µM (inactive)
- GI50 [44]: > 100 µM (inactive)
- GI50 [45]: > 100 µM (inactive)
- GI50 [46]: 34.4 µM (inactive)
- GI50 [48]: > 100 µM (inactive)
- GI50 [49]: > 100 µM (inactive)
- GI50 [50]: > 100 µM (inactive)
- GI50 [53]: > 100 µM (inactive)
- GI50 [54]: > 100 µM
- GI50 [55]: > 100 µM (inactive)
- GI50 [56]: 72.6 µM (inactive)
- GI50 [57]: > 100 µM (inactive)
- GI50 [58]: > 100 µM (inactive)

Structure (SMILES): CN(C)CCSc1cc(-c2ccccc2)c2ccccc2n1
- GI50 [1]: 10.6 µM (inactive)
- GI50 [2]: 14.9 µM (inactive)
- GI50 [3]: 10.3 µM (inactive)
- GI50 [4]: 10.7 µM (inactive)
- GI50 [5]: 2.09 µM (inactive)
- GI50 [6]: 12.2 µM (inactive)
- GI50 [7]: 4.04 µM (inactive)
- GI50 [8]: 6.14 µM (inactive)
- GI50 [9]: 10.2 µM (inactive)
- GI50 [10]: 13.5 µM (inactive)
- GI50 [11]: 15.4 µM (inactive)
- GI50 [12]: 12.3 µM (inactive)
- GI50 [14]: 1.97 µM (inactive)
- GI50 [15]: 13.6 µM (inactive)
- GI50 [16]: 12.6 µM (inactive)
- GI50 [17]: 11.8 µM (inactive)
- GI50 [18]: 15.7 µM (inactive)
- GI50 [19]: 10.3 µM (inactive)
- GI50 [21]: 17.3 µM (inactive)
- GI50 [22]: 19.1 µM (inactive)
- GI50 [24]: 13.2 µM (inactive)
- GI50 [25]: 10.8 µM (inactive)
- GI50 [26]: 16.3 µM (inactive)
- GI50 [27]: 7.93 µM (inactive)
- GI50 [28]: 11.3 µM (inactive)
- GI50 [29]: 2.59 µM (inactive)
- GI50 [30]: 3.69 µM (inactive)
- GI50 [31]: 5.78 µM (inactive)
- GI50 [32]: 9.18 µM (inactive)
- GI50 [33]: 6.38 µM (inactive)
- GI50 [59]: 16 µM (inactive)
- GI50 [34]: 13.6 µM (inactive)
- GI50 [35]: 3.14 µM (inactive)
- GI50 [36]: 10.5 µM (inactive)
- GI50 [37]: 16.6 µM (inactive)
- GI50 [38]: 1.63 µM (inactive)
- GI50 [39]: 15.4 µM (inactive)
- GI50 [40]: 10.4 µM (inactive)
- GI50 [41]: 15 µM (inactive)
- GI50 [42]: 12.9 µM (inactive)
- GI50 [43]: 4.7 µM (inactive)
- GI50 [44]: 13.6 µM (inactive)
- GI50 [45]: 10.6 µM (inactive)
- GI50 [46]: 14.2 µM (inactive)
- GI50 [48]: 7.43 µM (inactive)
- GI50 [49]: 14.3 µM (inactive)
- GI50 [50]: 3.91 µM (inactive)
- GI50 [52]: 10.8 µM (inactive)
- GI50 [53]: 2.69 µM (inactive)
- GI50 [54]: 3.82 µM
- GI50 [55]: 10.4 µM (inactive)
- GI50 [56]: 10.1 µM (inactive)
- GI50 [57]: 13.4 µM (inactive)
- GI50 [58]: 10 µM (inactive)
